Measured values as given in patent US6444420B2, “Use of GPR30 receptor ligands to mediate neurotrophic action” (The Board of Trustees of the Leland Stanford Junior …, priority 1999, dated 2002).
Entries after “also recorded” stand apart in the source; their conditions may differ.

Assays:
[1] = system: mitogen-activated protein (MAP) kinases; details: literature, Singh et al. (1999); cited from earlier work
[2] = system: Rap1; experiment: Rap1 activation pull-down assay in PC12 cells; type: cell-based; details: for Effect on Rap1 activation induced by 17β-estradiol: 100 nM 17β-estradiol plus 1 μM tamoxifen
Method: FIGS. 2A, 2B, 2C, 2D: 17β-estradiol elicits Rap1, but not Ras, activation in PC12 cells. Serum-starved PC12 cells were treated with 100 nM 17β-estradiol for the indicated time intervals. Activated Ras (A) and Rap1 (B) were precipitated from cell lysates and analyzed as described in the Materials and Methods. […] Tomaxifen itself has no effect on Rap1 activation in PC12 cells D.
Drug Screening Assays: These are used to identify GPR30 ligands that bind to and activate the GPR30 receptor. Drug screening identifies agents that enhance GPR30 activity. Of particular interest are screening assays for agents that have a low toxicity for human cells. In vitro or in vivo binding assays can be used to assess the extent to which a compound behaves as a specific ligand. Other assays are available to test for the activation of signaling pathways by ligand binding. One assay based on the finding that GPR30 activation results in the activation of the small GTPase Rap1, and of the other enzymes in the MAP kinase signaling pathway that is activated by Rap1. The assay for evaluating the activation of Rap1 examines the extent to which Rap1 is bound to GTP and employs a method as described by Herrmann et al. (1995) J. Biol. Chem 270:2901-2905. A wide variety of assays are available to assess the activation status of the enzymes downstream from Rap1. These include in vitro kinase assays for B-Raf, MEK, MAP kinase and Rsk (Cowley et al. (1994) Cell 77:841-852; Vossler et al. (1997) Cell 89:73-82). The activation of these proteins and some of their downstream targets (e.g. Elk-1 and CREB) may also be assessed through the use of antibodies to phosphorylated tyrosine or serine or threonine residues, which marks their active state (Payne et al. (1991) EMBO J. 10(4):885-892).
(§1) The reagents used in these studies were those specified in the original references to methods employed, unless otherwise specified. We used established cell culture methods for growing cells and for examining their morphological responses (Zhou et al. (1994) Proc. Natl. Acad. Sci USA 91(9):3824-3828). To examine gene expression for GPR30 and the classical ERs, standard methods were used to isolate mRNA and to analyze it by Northern blot and by RT-PCR (GIBCO-BRL, Bethesda, Md.). The activity of Rap1 and of Ras were assayed using pull-down assays with fusion proteins that bind specifically to the GTP-bound forms of these proteins, as described (Herrmann et al. (1995) J. Biol. Chem. 270:2901-2905). These fusion proteins were produced essentially as described by these authors. The activity of MAP kinase was determined by immunoblotting cell lysates with antibodies to phosphorylated MAP kinase (Payne et al. (1991) EMBO J. 10(4):885-892). The source of these antibodies was from New England Biolabs, Inc. (Beverley, Mass.).

[3] = system: Ras; experiment: Ras activation pull-down assay in PC12 cells; type: cell-based; details: serum-starved PC12 cells, 100 nM 17β-estradiol, indicated time intervals
Method: Serum-starved PC12 cells were treated with 100 nM 17β-estradiol for the indicated time intervals. Activated Ras (A) and Rap1 (B) were precipitated from cell lysates and analyzed as described in the Materials and Methods. […] The activity of Rap1 and of Ras were assayed using pull-down assays with fusion proteins that bind specifically to the GTP-bound forms of these proteins, as described (Herrmann et al. (1995) J. Biol. Chem. 270:2901-2905). These fusion proteins were produced essentially as described by these authors.

[4] = system: Erk kinases (MAP kinase); experiment: Erk (MAP kinase) activation by immunoblot of PC12 cell lysates; type: cell-based; details: serum-starved PC12 cells, 100 nM 17β-estradiol, indicated time intervals
Method: as §1, with “As in FIG. 2, serum-starved PC12 cells were treated with 100 nM 17β-estraldiol for the indicated time intervals. Cells were-rinsed and lysed in RIPA buffer. Proteins were separated on SDS-PAGE, blotted onto PVDF membrane. The blot was probed for activated Erks (i.e activated MAP kinase) using rabbit IgGs against activated Erk kinases (UBI). The reagents” for “The reagents”

[5] = system: PC12 cells; experiment: PC12 cell differentiation and survival in serum-free media; type: cell-based; details: serum-free media with 100 nM 17β-estradiol, 6 days
Method: as §1, with “PC12 cells were maintained in either serum-free media (A) or serum-free media supplemented with 100 nM 17β-estradiol (B) for 6 days. Cells were monitored with phase-contrast microscope and typical images were captured using a CCD camera. Differentiated PC12 cells (arrows) can be observed with 17β-estradiol treatment (B), whereas massive cell death occurred in the control (A). The reagents” for “The reagents”, “J. 10(4):885-892). […]” for “J. 10(4):885-892). The source of these antibodies was from New England Biolabs, Inc. (Beverley, Mass.).”

[6] = system: 145 kDa intermediate neurofilament; experiment: 145 kDa intermediate neurofilament expression in PC12 cells (immunoblot); type: cell-based; details: serum-free media, 3 days
Excerpt: FIG. 5: Induction of the 145 kDa intermediate neurofilament expression by 17β-estradioi in PC12 cells. PC12 cells were maintained in either serum-free media supplemented with either NGF or 17β-estradiol at the indicated concentrations for 3 days. Treated as well as control cells were lysed in RIPA buffer and the lysates were separated on SDS-PAGE, transferred onto PVDF membrane. The blot was probed with specific antibodies against the 145 kDa intermediate neurofilament.

17β-estradiol
Tyrosine phosphorylation/activation of MAP kinases [1]: elicited rapid tyrosine phosphorylation/activation

C[C@]12CC[C@@H]3c4ccc(O)cc4CC[C@H]3[C@@H]1CC[C@@H]2O [17β-estradiol]
Activation of Rap1 during the first 10 minutes of treatment ([2]; PC12 cells, first 10 minutes): little effect
Activation of Rap1 at later times ([2]; PC12 cells, later than 10 minutes): marked effect
Rap1 activation ([2]; serum-starved PC12 cells, 100 nM 17β-estradiol, indicated time intervals): induces Rap1 activation; also recorded: activated Rap1
Ras activation [3]: no detectable Ras activation and not
Erk / MAP kinase activation (pERK) [4]: induces prolonged Erk activation; also recorded: induced sustained activation
PC12 cell differentiation (neurite outgrowth) [5]: induces PC12 cell differentiation; also recorded: induced the outgrowth of long neurites
PC12 cell survival under serum free culture [5]: prevented these cells from dying
Expression of the 145 kDa intermediate neurofilament protein [6]: Induction; also recorded: increasing the level of expression

C[C@]12CC[C@@H]3c4ccc(O)cc4C[C@@H](CCCCCCCCC[S+]([O-])CCCC(F)(F)C(F)(F)F)[C@H]3[C@@H]1CC[C@@H]2O (some centres unmarked) [ICI 182,780]
Inhibition of estradiol-elicited extracellular signal-regulated protein kinase activation [1]: not

COc1cccc(-c2cc(=O)c3ccccc3o2)c1N [PD98059]
Inhibition of estradiol-elicited extracellular signal-regulated protein kinase activation [1]: inhibited successfully

CC/C(=C(\c1ccccc1)c1ccc(OCCN(C)C)cc1)c1ccccc1 [tamoxifen]
Effect on Rap1 activation induced by 17β-estradiol ([2]; PC12 cells): blocked the response
Effect on Rap1 activation induced by 17β-estradiol ([2]; PC12 cells, listed as tomaxifen): can be blocked
Rap1 activation by the substance alone ([2]; PC12 cells, tamoxifen alone): no effect
